# “Also recorded” adds a separate entry of the source. Read-outs that look alike come from different tables or passages of the source. *1 amine or outer side, *2 acyl side, *3 side chain or, on linkers, in order; H or OH if unused. Where a SMILES comes first, the peptide text is derived from it. Bridges are numbered along the chain shown (N, C = ends). [ ]: non-standard residue; d: D form. 2Nal = N[C@@H](Cc1ccc2ccccc2c1)C(=O)O; AEF = NCCOc1ccc(C[C@H](N)C(=O)O)cc1; X1 = O=C(Cc1ccc(CN[*:1])cc1)[*:2]; 3Pal = N[C@@H](Cc1cccnc1)C(=O)O; αMeL = CC(C)C[C@](C)(N)C(=O)O; Dab = NCC[C@H](N)C(=O)O
# What was measured:
# [1] = Peptide stability in simulated intestinal fluid (SIF); assay type: in vitro ADME; details: for remaining at 1 h, 10 µM / remaining at 4 h, 10 µM: pig
# Experimental: (§1) SGF and SIF were prepared based on the United States Pharmacopeia specifications (Test Solutions, United States Pharmacopeia 35, NF 30, 2012). SGF was prepared by dissolving sodium chloride (0.2 g) in 50 mL of water. A volume of 0.7 mL of 10 M HCl was added to adjust the pH of the solution to 1.2 and the volume made up to 100 mL with water. 64 mg porcine pepsin (P7125, Sigma Aldrich) was gently dissolved into 20 mL preheated (37° C.) solution (3.2 g/L) immediately prior to the incubation. SIF was prepared by dissolving monobasic potassium phosphate (0.68 g) in 50 mL of water and adjusting the pH to 6.8 with 1 M NaOH. The volume was subsequently made up to 100 mL with water. 200 mg porcine pancreatin (P1625, Sigma Aldrich) was gently dissolved into 20 mL preheated (37° C.) solution (10 g/L) immediately prior to the incubation.
# (§2) To initiate the incubations, 20 μL of peptide stock solution in 50% v/v isopropanol was deposited at the bottom of a well plate and 580 μL matrix solution was added to give a final substrate concentration of 10 μM. The incubation was performed at 37° C. with gentle shaking. 70 μL aliquots were removed at 0, 1 and 4 hours and quenched into 210 μL ice-cold precipitant solution (95% v/v acetonitrile with 0.1% v/v formic acid). After the last timepoint, the sampling plate was mixed for 10 min on a shaking table and centrifuged 10 min at 2200 g. 70 μL resulting supernatant was diluted with 150 μL water, mixed and centrifugated before analysis by liquid chromatography high resolution mass spectrometry. The zero sample was reinjected after the 4-hour sample to confirm that no drift in instrument sensitivity had occurred during the run. Percent remaining at each timepoint was calculated relative to timepoint zero based on absolute peak areas.
# (§3) Compounds with a SIF stability (after 4 h) above 70% are considered highly SIF stable. Compounds with a SIF stability (after 4 h) between 30-70% (including 30% and 70%) are considered moderately SIF stable. Compounds with a SIF stability (after 4 h) below 30% are considered SIF unstable. SIF stability values above 100% are due to assay uncertainty and indicate the compound has not degraded.
# [2] = Peptide stability in simulated gastric fluid (SGF); assay type: in vitro ADME; details: pig, pH 1.2, pepsin, 37° C.
# Experimental: as §1, §2
# as §3, with “SGF” for “SIF”
# [3] = test system: IL-23 mediated STAT3 signalling (DB cells); assay: Functional inhibition of IL-23 mediated STAT3 signalling (phospho-STAT3 Tyr705) in DB cells; assay type: cell-based, human; details: for hIL-23 (pSTAT3) antagonist % inhibition: Table 3-2, maximal inhibitory response, EC80 of hIL-23
# Outline: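 DB cells preincubated 15 min with inhibitor at 37° C, 5% CO2, then stimulated 90 min with hIL-23 at EC80. Lysate phospho-STAT3 measured by MSD electrochemiluminescence. Signal normalized to IL-23-alone and buffer wells; IC50 and maximal inhibition from concentration–response curves.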
# human IL-23R = target: T1, human IL-23R (Homo sapiens, UniProt Q5VWK5); assay: Binding assay: displacement of fluorophore (TAMRA)-labelled reference compound from human IL-23R (BRET, Nluc-IL23R fusion protein membranes); details: for potency of the compound (in words): potency against IL-23R; for Emax: read-out: % displacement (hIL-23R binding)
# T1 construct: Nanoluc luciferase (Nluc); secretion signal encoded by the plasmid (not specified); expressed in transfected cells; crude membranes used in the assay
# T1 sequence (Q5VWK5 22-629): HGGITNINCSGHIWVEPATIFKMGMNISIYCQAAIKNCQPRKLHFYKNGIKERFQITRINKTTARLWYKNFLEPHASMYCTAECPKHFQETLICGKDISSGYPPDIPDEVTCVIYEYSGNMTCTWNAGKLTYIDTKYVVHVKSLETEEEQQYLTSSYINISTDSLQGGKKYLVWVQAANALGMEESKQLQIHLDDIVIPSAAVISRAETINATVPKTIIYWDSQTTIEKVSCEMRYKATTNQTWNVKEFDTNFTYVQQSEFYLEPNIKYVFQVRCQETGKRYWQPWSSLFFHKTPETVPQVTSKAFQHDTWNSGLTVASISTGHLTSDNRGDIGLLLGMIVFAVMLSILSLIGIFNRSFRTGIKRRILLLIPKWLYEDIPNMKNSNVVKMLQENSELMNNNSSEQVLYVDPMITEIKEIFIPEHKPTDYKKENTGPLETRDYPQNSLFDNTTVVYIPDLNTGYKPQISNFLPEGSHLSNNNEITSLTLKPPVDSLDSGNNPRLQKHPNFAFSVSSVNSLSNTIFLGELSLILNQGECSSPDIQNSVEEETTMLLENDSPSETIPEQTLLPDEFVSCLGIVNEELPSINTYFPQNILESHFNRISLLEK
# [4] = simulated intestinal fluid, SIF, pH 6.8, pancreatin, 37° C.
# [5] = simulated intestinal fluid, SIF, pH 6.8, pancreatin, 37° C., read-out: SIF (% remaining 4 h)
# [6] = EC80 of hIL-23, read-out: IC50 (pSTAT3)
# [7] = Table 3-2, EC80 of hIL-23, read-out: hIL-23 (pSTAT3) antagonist IC50
"remaining at 1 h, 10 µM [1, 4] [%]","remaining at 4 h, 10 µM [1, 5] [%]","remaining at 1 h, 10 µM [2] [%]","remaining at 4 h, 10 µM [2] [%]","IC50 [3, 6] [nM]","IC50 [3, 7] [nM]","remaining at 4 h, 10 µM ([1]; 37 °C, simulated intestinal fluid pH 6.8 with porcine pancreatin, read-out: SIF (% after 4 h), intact peptide remaining) [%]",SIF stability (in words) ([1]; simulated intestinal fluid),IC50 (human IL-23R) [nM],Emax (human IL-23R) [%],SMILES,hIL-23 (pSTAT3) antagonist % inhibition [3] [%],potency of the compound (in words) (human IL-23R),major metabolite formed after incubation in the SIF assay ([1]; simulated intestinal fluid)
0,0,5,0,,,,,,,"CC(C)C[C@@H]1NC(=O)[C@H](Cc2c[nH]c3ccccc23)NC(=O)[C@H](Cc2c[nH]c3ccccc23)NC(=O)[C@@H]2CSCC(=O)CSC[C@H](NC(=O)[C@H](CO)NC(=O)[C@@H](NC(=O)[C@@H](N)CC(=O)O)CSCC(=O)CSC[C@@H](C(=O)N[C@@H](CCCNC(=N)N)C(N)=O)NC1=O)C(=O)N[C@@H](Cc1c[nH]c3ccccc13)C(=O)N[C@@H](CCC(N)=O)C(=O)N2 (single isomer, unassigned) [I3 (isomer 3), H-DC(1a)SC(2a)WQC(2a)WWLC(1a)R-[NH2], reference compound]",,,
91,,,105,2.1,2.1,,,,,"CC(C)C[C@]1(C)NC(=O)[C@H](Cc2ccc3ccccc3c2)NC(=O)[C@H](Cc2ccc(OCCN)cc2)NC(=O)[C@@H]2CCNC(=O)CC[C@H](NC(=O)[C@H](CO)NC(=O)Cc3ccc(cc3)CNC(=O)CC[C@@H](C(=O)N[C@@H](CCN)C(=O)N[C@H](Cc3cccnc3)C(N)=O)NC1=O)C(=O)N[C@@H](Cc1c[nH]c3ccccc13)C(=O)N[C@@H](CCC(N)=O)C(=O)N2 [Compound 5, [4-Aminomethyl-phenylacetyl](1c)*SE(2c)WQ[Dab](2c)[Y(2-aminoethoxy)][2-Nal][2-Me-Leu]E(1c)[Dab][{d}3-(3-Pyridyl)-Ala]-[NH2]]",95,,
103,,,,0.13,0.13,130,SIF stable,,,"CC(C)C[C@]1(C)NC(=O)[C@H](Cc2ccc3ccccc3c2)NC(=O)[C@H](Cc2ccc(OCCN)cc2)NC(=O)[C@@H]2CCNC(=O)CC[C@H](NC(=O)[C@H](CO)NC(=O)Cc3ccc(cc3)CNC(=O)CC[C@@H](C(=O)N[C@@H](CCN)C(=O)NCCc3cccnc3)NC1=O)C(=O)N[C@@H](Cc1c[nH]c3ccccc13)C(=O)N[C@@H](CCC(N)=O)C(=O)N2 [Compound 7, [4-Aminomethyl-phenylacetyl](1c)*SE(2c)WQ[Dab](2c)[Y(2-aminoethoxy)][2-Nal][2-Me-Leu]E(1c)[Dab]-[NH-(2-(pyridin-3-yl)ethyl)]]",98,more potent than Compound 6; also recorded: particularly potent,
,57,101,101,,0.063,,,,,"CNC(=O)[C@H](Cc1cccnc1)NC(=O)[C@H](CCN)NC(=O)[C@@H]1CCC(=O)NCc2ccc(cc2)CC(=O)N[C@@H](Cc2ccccc2)C(=O)N[C@H]2CCC(=O)NCC[C@H](NC(=O)[C@H](CCC(N)=O)NC(=O)[C@H](Cc3c[nH]c4ccccc34)NC2=O)C(=O)N[C@@H](Cc2ccc(OCCN)cc2)C(=O)N[C@@H](Cc2ccc3ccccc3c2)C(=O)N[C@@](C)(CC(C)C)C(=O)N1 [Compound 21, [4-Aminomethyl-phenylacetyl](1c)*FE(2c)WQ[Dab](2c)[Y(2-aminoethoxy)][2-Nal][2-Me-Leu]E(1c)[Dab][3-(3-Pyridyl)-Ala]-[NHMe]] ([X1]FEWQ[Dab][AEF][2Nal][αMeL]E[Dab][3Pal]-NHMe; lactam 3-6, N-10)",102,,
92,,98,,,,,,,,"CNC(=O)[C@H](Cc1cccnc1)NC(=O)[C@H](CCC(N)=O)NC(=O)[C@@H]1CCC(=O)NCc2ccc(cc2)CC(=O)N[C@@H](CO)C(=O)N[C@H]2CCC(=O)NCC[C@H](NC(=O)[C@H](CCC(N)=O)NC(=O)[C@H](Cc3c[nH]c4ccccc34)NC2=O)C(=O)N[C@@H](Cc2ccc(OCCN)cc2)C(=O)N[C@@H](Cc2ccc3ccccc3c2)C(=O)N[C@@](C)(CC(C)C)C(=O)N1 [Compound 33, [4-Aminomethyl-phenylacetyl](1c)*SE(2c)WQ[Dab](2c)[Y(2-aminoethoxy)][2-Nal][2-Me-Leu]E(1c)Q[3-(3-Pyridyl)-Ala]-[NHMe]] ([X1]SEWQ[Dab][AEF][2Nal][αMeL]EQ[3Pal]-NHMe; lactam 3-6, N-10)",,,
93,89,,,,0.093,,,0.023,89,"CNC(=O)[C@H](Cc1cccnc1)NC(=O)[C@H](CCN)NC(=O)[C@@H]1CCC(=O)NCc2ccc(cc2)CC(=O)N[C@@H](C)C(=O)N[C@H]2CCC(=O)NCC[C@H](NC(=O)[C@H](CCC(N)=O)NC(=O)[C@H](Cc3c[nH]c4ccccc34)NC2=O)C(=O)N[C@@H](Cc2ccc(OCCN)cc2)C(=O)N[C@@H](Cc2cnc3ccccc3c2)C(=O)NC(C)(C)C(=O)N1 [Compound 49, 4-aminomethyl-phenylacetyl](1c)*AE(2c)WQ[Dab](2c)[Y(2-aminoethoxy)][3-quinolinylalanine][Aib]E(1c)[Dab][3-(3-Pyridyl)-alanyl]-[NHMe]]",100,,
92,95,,,,0.6,,,0.081,102,"CNC(=O)[C@H](Cc1cccnc1)NC(=O)[C@H](CCN)NC(=O)[C@@H]1CCC(=O)NCc2ccc(cc2)CC(=O)N[C@@H](C)C(=O)N[C@H]2CCC(=O)NCC[C@H](NC(=O)[C@H](CCC(N)=O)NC(=O)[C@H](Cc3c[nH]c4ccccc34)NC2=O)C(=O)N[C@@H](Cc2cnc3ccccc3c2)C(=O)N[C@@H](Cc2ccc3ccccc3c2)C(=O)NC(C)(C)C(=O)N1 [Compound 52, [4-aminomethyl-phenylacetyl](1c)*AE(2c)WQ[Dab](2c)[3-quinolinylalanine][2Nal][Aib]E(1c)[Dab][3-(3-Pyridyl)-alanyl]-[NHMe]]",99,,
,,,,,,,not stable,,97,"CC(C)C[C@]1(C)NC(=O)[C@H](Cc2ccc3ccccc3c2)NC(=O)[C@H](Cc2ccc(OCCN)cc2)NC(=O)[C@@H]2CCNC(=O)CC[C@H](NC(=O)[C@H](CO)NC(=O)Cc3ccc(cc3)CNC(=O)CC[C@@H](C(=O)N[C@@H](CCN)C(=O)N[C@@H](Cc3cccnc3)C(N)=O)NC1=O)C(=O)N[C@@H](Cc1c[nH]c3ccccc13)C(=O)N[C@@H](CCC(N)=O)C(=O)N2 [Ref 122, [4-Aminomethyl-phenylacetyl](1c)*SE(2c)WQ[Dab](2c)[Y(2-aminoethoxy)][2-Nal][2-Me-Leu]E(1c)[Dab][3-(3-Pyridyl)-Ala]-[NH2], reference compound]",99,potent,the peptide without the C-terminal 3Pal (3-(3-Pyridyl)-Ala) amino acid

# — patent publication US20260327264A1, “PEPTIDE INHIBITORS OF INTERLEUKIN-23 RECEPTOR” (Zealand Pharma A/S, priority 2023, published 2026)
